In patent US5606037A, “Processes antineoplastic heteronaphthoquinones” (BioChem Pharma Inc., priority 1995, dated 1997):
Counter-ions that a name gives are not always drawn.

Experiments:
Assay type in all cases: cell-based, Human
VLB/OV3 = assay: Resistance ratio of SKVLB over SKOV3 cytotoxicity (VLB/OV3); conditions: ratio SKVLB to SKOV3; Table 1; 2880 min
Description: The microculture tetrazolium assay was used to test in vitro cytotoxicity. This assay is described in Plumb, J. A. et al., 1989 Cancer Research 49, 4435-4440, which is herein incorporated by reference. The cytotoxicity of compounds towards tumor cells is measured in vitro using the assay. This assay method is based upon the ability of live, but not dead cells to reduce the yellow water soluble dye 3-(4,5-dimethylthiazol-2-yl)-2,5-diphenyltetrazolium bromide (MTT) to its water insoluble purple formazan product.
SKOV3 (Ovarian adenocarcinoma)--provided by Dr. V. Ling, Ontario Cancer Institute.
SKVLB (Ovarian; multidrug resistant)--Dr. V. Ling, Ontario Cancer Institute.
For each assay, doxorubicin is included as an inter-assay standard. This allows us to monitor the behaviour of the assay in general, and in particular, to check that the SKVLB line has maintained its resistant phenotype.
Cells are plated out in 100 μl of culture medium in the microtiter plates at a density of around 1,500-4,000 cells per well. The plates are incubated overnight to allow the cells to become adherent after which the test compound is added (100 μl of appropriate dilution per well). The cells are incubated with test compound at 37° C. for 48 h after which the compound is replaced with fresh medium. After a further 48 h incubation at 37° C., 50 μl of MTT solution (2 mg/ml) is added to each well. The plates are incubated in the dark for 4 h at 37° C. after which the medium is removed. The MTT formazan product is extracted from the cells by the addition of 200 μl DMSO followed by 50 μl of Sorensen's buffer. The plates are shaken briefly and the absorbance at 570 nm is read using a Molecular Devices UV max plate reader. Curves are fit to the MTT assay data using a four parameter logistic equation, and the data are normalized to fit a 0% to 100% survival scale.

[1] = system: HT 29 (Colon adenocarcinoma); assay: In vitro cytotoxicity, microculture tetrazolium (MTT) assay, HT29; conditions: Homo sapiens, HT-29, 48 h with compound, further 48 h, Table 1
In short: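 HT29 cells exposed to compound (1:3 series, 100 μM to 1.7 nM, quadruplicate) for 48 h at 37 °C, then 48 h in fresh medium. Viability by MTT reduction, formazan absorbance at 570 nm; four-parameter logistic fit on 0-100% survival scale.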

Lox (Melanoma) = assay: In vitro cytotoxicity, microculture tetrazolium (MTT) assay, LOX; conditions: Homo sapiens, 48 h with compound, further 48 h, Table 1
In short: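 LOX melanoma cells, 1,500–4,000 per well, exposed to compound (1:3 dilutions, 100 μM to 1.7 nM) for 48 h at 37° C., then 48 h in fresh medium. MTT reduction read at 570 nm; four-parameter logistic fit normalized to 0–100% survival.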

[2] = system: T47D (Ductal carcinoma of breast); assay: In vitro cytotoxicity, microculture tetrazolium (MTT) assay, T47D; conditions: Homo sapiens, 48 h with compound, further 48 h, Table 1
In short: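 Adherent cells (1,500-4,000/well) were exposed to compound in 1:3 dilutions from 100 μM to 1.7 nM, in quadruplicate, for 48 h at 37° C, followed by 48 h in fresh medium. MTT formazan was read at 570 nm, and data were fitted by four-parameter logistic on a 0-100% survival scale.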

[3] = system: SKOV3 (Ovarian adenocarcinoma); assay: In vitro cytotoxicity, microculture tetrazolium (MTT) assay, SKOV3; conditions: Homo sapiens, SK-OV-3; SKOV3 ovarian adenocarcinoma; 48 h with compound, further 48 h, MTT; Table 1
In short: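 Cells plated overnight, then exposed to compound (1:3 dilutions, 100 μM to 1.7 nM, quadruplicate) 48 h at 37 °C, followed by 48 h in fresh medium. MTT 4 h, formazan extracted in DMSO/Sorensen's buffer pH 10.5, A570; four-parameter logistic fit on 0–100% survival scale.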

[4] = system: SKVLB (Ovarian; multidrug resistant); assay: In vitro cytotoxicity, microculture tetrazolium (MTT) assay, SKVLB; conditions: Homo sapiens; SKVLB multidrug resistant ovarian; 48 h with compound, further 48 h, MTT; Table 1
In short: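 Multidrug-resistant SKVLB ovarian cells, 1,500–4,000 per well, exposed to compound (1:3 dilutions, 100 μM to 1.7 nM, quadruplicate) for 48 h at 37 °C, then 48 h in fresh medium. Viability by MTT reduction, formazan read at 570 nm; four-parameter logistic fit on a 0–100% survival scale.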

Compound: CC(=O)C1CC2=C(C(=O)c3ccccc3C2=O)C(OC2CC(NC(=O)C(F)(F)F)C(O)C(C)O2)O1 [BCH2144, (1R, 3S)-1-(2',3',6'-trideoxy-3'-trifluoroacetamido-4'-hydroxy-1,5-dihydro-L-lyxohexopyranose-2-yl)-5,10-dioxo-3,4,5,10-tetrahydro-1H-naphtho-[2,3-c] pyran]
- VLB/OV3 (VLB/OV3): 0.75

Compound: COP(=O)(CC(=O)[C@H]1CC2=C(C(=O)c3ccccc3C2=O)[C@H](O[C@H]2C[C@H](NC(=O)C(F)(F)F)[C@H](O)[C@H](C)O2)O1)OC [BCH1690, (1'S,1S,3R)-1-(2',3',6'-trideoxy-3'-trifluoroacetamido-L-lyxohexopyranose)-3-dimethylphosphonoacetyl-5,10-dioxo-3,4,5-10-tetrahydro-1H-naphtho-[2,3-c]-pyran]
- VLB/OV3 (VLB/OV3): 7.70

Compound: CC(=O)CC1CC2=C(C(=O)c3cccc(O)c3C2=O)C(O[C@H]2C[C@H](NC(=O)C(F)(F)F)[C@H](O)[C@H](C)O2)O1 (mixture of isomers) [BCH2098, (1'-S, 1-S, 3-R) and (1'-S, 1-R, 3-S)-1-(6-hydroxy-1-(2',3',6'-trideoxy-3'-trifluoroacetamido, 4-hydroxy-L-lyxopyranose)-5,10-dioxo-3,4,5,10 tetrahydronaphtho-[2,3-c]pyran-3-yl) propane-2-one]
- IC50 [1]: 17 µM
- IC50 (Lox (Melanoma)): 4.2 µM
- IC50 [2]: 10 µM
- IC50 [3]: 8 µM
- IC50 [4]: 30 µM

Compound: COC1OC(C(C)=O)=CC2=C1C(=O)c1ccccc1C2=O (stereo not drawn) [BCH2129, 3-Aceto-5,10-dioxo-1-methoxy-5,10-dihydro-1H-naphtho-(2,3-c)-pyran]
- IC50 [1]: 2.07 µM
- IC50 (Lox (Melanoma)): 0.228 µM
- IC50 [2]: 0.452 µM
- IC50 [3]: 0.359 µM
- IC50 [4]: 1.06 µM

Compound: CC(=O)[C@@H]1CC2=C(C(=O)c3ccccc3C2=O)[C@@H](O[C@H]2C[C@H](NC(=O)C(F)(F)F)[C@H](O)[C@H](C)O2)S1 [BCH2037, (1'S,1S,3S)-1-(3'-trifluoroacetamido-2',3',6'-trideoxy-L-lyxohexopyranose)-5,10-dioxo-3,4,5,10-tetrahydro-1H-naphtho-[2,3-c]-thiopyran]
- IC50 [1]: 1.1 to 4.25 µM
- IC50 (Lox (Melanoma)): 0.54 to 0.816 µM
- IC50 [2]: 2.2 to 2.29 µM
- IC50 [3]: 0.59 to 5.09 µM
- IC50 [4]: 3.8 to 4.73 µM

Compound: CC(C)C(=O)[C@@H]1CC2=C(C(=O)c3ccccc3C2=O)[C@@H](O[C@H]2C[C@H](NC(=O)C(F)(F)F)[C@H](O)[C@H](C)O2)O1 [BCH2112, (1'S, 1R, 3S)-isopropyl-[1-(2',3',6'-trideoxy-3'-trifluoroacetamido-L-lyxohexopyranose)-5,10-dioxo-3,4,5,10-tetrahydro-1H-naphtho-[2,3-c]-pyranyl]-ketone]
- IC50 [1]: 0.065 µM
- IC50 (Lox (Melanoma)): 0.21 µM
- IC50 [2]: 0.27 µM
- IC50 [3]: 0.104 µM
- IC50 [4]: 1.7 µM

Compound: CC(=O)[C@H]1CC2=C(C(=O)c3ccccc3C2=O)[C@H](O[C@H]2C[C@H](NC(=O)C(F)(F)F)[C@H](Br)[C@H](C)O2)O1 [BCH2047, (1S,3R,1'S)-Methyl-(1-[2',3',4',6'-tetradeoxy-3'-trifluoroacetamido-4'-bromo-L-lyxohexopyranose]-5,10-dioxo-3,4,5,10-tetrahydronaphthaleno-[2,3-c]pyran-3-yl) ketone]
- IC50 [1]: 0.0041 µM
- IC50 (Lox (Melanoma)): 0.021 µM
- IC50 [2]: 0.151 µM
- IC50 [3]: 0.017 µM
- IC50 [4]: 0.523 µM

Compound: COC(=O)[C@H](CC(C)C)NC(=O)[C@H](CO[C@H]1O[C@H](C(C)=O)CC2=C1C(=O)c1ccccc1C2=O)NC(=O)OC(C)(C)C [BCH1998, (1S,2'S,3S,5'S)-Methyl-(1-O-[N-BOC-Serine-Leucine-Me ester]-5,10-dioxo-3,4,5,10-tetrahydro-1-H-naphtho[2,3-c]pyran-3-yl) ketone]
- IC50 [1]: 0.0363 µM
- IC50 (Lox (Melanoma)): 0.0631 µM
- IC50 [2]: 0.114 µM
- IC50 [3]: 0.125 µM
- IC50 [4]: 1.66 µM

Compound: CC(=O)C1CC2=C(CO1)C(=O)c1ccc(O)cc1C2=O (stereo not drawn) [BCH1129, Methyl (7-hydroxy-5,10-dioxo-3,4,5,10-tetrahydronaphtho [2,3-C]pyran-3-yl) ketone]
- IC50 [1]: 63.2 µM
- IC50 (Lox (Melanoma)): 88.2 µM
- IC50 [2]: 59.4 µM
- IC50 [3]: 73.3 µM
- IC50 [4]: > 100 µM

Compound: CC(=O)O[C@@H]1[C@H](C)O[C@@H](O[C@@H]2O[C@@H](C(C)=O)CC3=C2C(=O)c2ccccc2C3=O)C(Br)[C@@H]1OC(C)=O (stereo partly drawn) [BCH2099, (1'S,1S,3R)-methyl-(1-[2',6'-dideoxy-3',4'-diacetoxy-2'-bromo-L-lyxohexopyranose]-5,10-dioxo-3,4,5,10-tetrahydronaphtho-[2,3-c]-pyran-3-yl) ketone]
- IC50 [1]: 0.303 to 1.7 µM
- IC50 (Lox (Melanoma)): 0.128 to 1.1 µM
- IC50 [2]: 0.728 to 3.4 µM
- IC50 [3]: 0.599 to 2 µM
- IC50 [4]: 0.462 to 8.4 µM

Compound: COC(=O)C1=CC2=C(C(=O)c3ccccc3C2=O)C(OC)O1 (stereo not drawn) [BCH2160, 1-methoxy-3-methoxy carbonyl-5,10-dioxo-5,10-dihydro-1H-naphtho-[2,3-c]-pyran]
- IC50 [1]: 15.7 µM
- IC50 (Lox (Melanoma)): 7.43 µM
- IC50 [2]: 9.59 µM
- IC50 [3]: 4.93 µM
- IC50 [4]: 9.12 µM

Compound: CC(=O)[C@@]1(C)CC2=C(C(=O)c3ccccc3C2=O)[C@H](O[C@H]2C[C@H](NC(=O)C(F)(F)F)[C@H](O)[C@H](C)O2)O1 [BCH2082, (1'S, 1S, 3R)-1-(3'-trifluoroacetamido-2',3',6'-trideoxy-L-lyxohexopyranose)-3-acetyl-3-methyl-5,10-dioxo-4,5,10-trihydro-1H-naphtho-[2,3-c]-pyran]
- IC50 [1]: 2.6 µM
- IC50 (Lox (Melanoma)): 1.6 µM
- IC50 [2]: 4 µM
- IC50 [3]: 1.8 µM
- IC50 [4]: 5.6 µM

Compound: CO[C@H]1C[C@H](O[C@H]2O[C@H](C(C)=O)C[C@]34O[C@]23C(=O)c2ccccc2C4=O)O[C@@H](C)[C@H]1OS(C)(=O)=O [BCH2141, (1'-S,1-R,3-S,4a-S,10a-S)-methyl-(1-[2',3',4',6'-tetradeoxy-3'-methoxy-4'-O-methanesulfonyl-L-lyxohexopyranose)-4a,10a-epoxy-5,10-dioxo-3,4,5,10-tetrahydronaphtho-[2,3-c]pyran-3-yl) ketone]
- IC50 [1]: 6.44 µM
- IC50 (Lox (Melanoma)): 1.82 µM
- IC50 [2]: 3.79 µM
- IC50 [3]: 8.12 µM
- IC50 [4]: 9.96 µM

Compound: COC1OC(C(=O)NCCN2CCCC2)=CC2=C1C(=O)c1ccccc1C2=O (stereo not drawn) [BCH2839, 1-methoxy-3-[2-(N-pyrrolidinyl)ethylaminocarbonyl]-5,10-dioxo-5,10-dihydro-1H-naphtho-[2,3-c]-pyran hydrochloride salt]
- IC50 [1]: 0.174 to 0.49 µM
- IC50 (Lox (Melanoma)): 0.262 to 0.975 µM
- IC50 [2]: 0.0581 to 0.291 µM
- IC50 [3]: 0.0365 to 0.0461 µM
- IC50 [4]: 0.224 to 0.46 µM

Compound: CC(=O)[C@@H]1CC2=C(C(=O)c3ccccc3C2=O)[C@@H](O[C@@H]2O[C@@H](C)[C@@H](O)[C@@H](NC(=O)C(F)(F)F)C2I)O1 (stereo partly drawn) [BCH2023, (1'S,1R,3S)-methyl-(1-[2',3',6'-trideoxy-2'-iodo-3'-trifluoroacetamido-4'-hydroxy-L-lyxohexopyranose]-5,10-dioxo-3,4,5,10-tetrahydronaphtho-[2,3-c]-pyran-3-yl) ketone]
- IC50 [1]: 0.98 µM
- IC50 (Lox (Melanoma)): 0.67 µM
- IC50 [2]: 5.5 µM
- IC50 [3]: 0.73 µM
- IC50 [4]: 3.2 µM

Compound: CO[C@@H]1O[C@H](C(=O)Nc2ccccc2)CC2=C1C(=O)c1ccccc1C2=O (relative stereo) [BCH2042, (1,3-cis)-anline-(1-methoxy-5,10-dioxo-3,4,5,10-tetrahydro-1H-naphtho-[2,3-c]-pyran)-3-carboxamide]
- IC50 [1]: 1.2 µM
- IC50 (Lox (Melanoma)): 2.22 µM
- IC50 [2]: 8 µM
- IC50 [3]: 3.8 µM
- IC50 [4]: 13.2 µM
